In US20140242606A1, “PROBE FOR iFRET AND USE THEREOF” (KOREA RESEARCH INSTITUTE OF BIOSCIENCE AND BIOTECHNOLOGY, priority 2011, published 2014):

How the values were obtained:
[1] = tested on: HSP90 (heat shock protein 90) protein; assay: iFRET detection of HSP90 with probe XXIV; type: binding
Experimental: Compound XXIV was dissolved in DMSO, and then diluted with distilled water to a final concentration of 2 μM. When Compound XXIV or the protein was present alone, no fluorescence signals were newly observed around 450 nm.
(§1) The right graph of FIG. 18 is the result of reexamining iFRET signals using Compound XXIV, purified HSP90 protein, and a control group BSA (bovine serum albumin). 2 μM Compound XXIV was used, and HSP90 protein and BSA protein were used at the final concentration of 200 nM. At this time, the used buffer was phosphate buffered saline (PBS; pH 7.4). As shown in the figure, iFRET signals result from compound XXIV and HSP90 protein which are selectively binding.
FIG. 19 is a graph showing iFRET signals detected by using HSP90 protein and Chemical Formula XXIV Selectively binding thereto.
(§2) As a control group, BSA (bovine serum albumin) was used.

[2] = target: BSA (bovine serum albumin) (Bos taurus, UniProt P02769); assay: iFRET control of probe XXIV with BSA; type: binding; conditions: probe (2 μM) with BSA (200 nM), PBS pH 7.4
Experimental: as §1, §2

HSP90 protein = assay: Dissociation constant of iFRET probe and HSP90 (double reciprocal plot of fluorescence); type: binding; conditions: probe concentration fixed, HSP90 at various concentrations
Experimental: FIG. 21 is the result of binding degree of the synthesized Chemical Formula XXIV and HSP90 protein. The core structure used in the synthesis of Chemical Formula XXIV is PU-H64 (J. Med. Chem. 2006, 49, 4953-4960), and this structure binds to HSP90. The iFRET probe used in this experiment is a structure in which a fluorescent nucleus is introduced into PU-H64. In order to examine the actual binding degree of this probe and HSP90 protein, analysis of enzyme kinetics was performed to confirm that its dissociation constant is approximately 160 nM. The concentration of Chemical Formula XXIV as the iFRET probe was fixed and HSP90 was reacted at various concentrations to measure emitted fluorescence intensity. Based on this measured values, the dissociation constant was calculated. The reciprocal of the HSP90 concentration and the reciprocal of the fluorescence value were plotted to calculate the dissociation constant.

[3] = Fluorescence of the iFRET probe alone; type: physicochemical
Excerpt: After excitation at 260, 280, 340, and 360 nm, the emitted fluorescence spectra were examined. […]
(§3) As in FIG. 23 showing the result of using the compound of Chemical Formula XXV as a probe for iFRET, the probe itself emitted low fluorescence (blue line) at 430 nm by UV irradiation at 280 nm; the protein (streptavidin) emitted fluorescence (green line) at 340 nm by UV irradiation at 280 nm.
As in FIG. 24 showing the result of using the compound of Chemical Formula XXVI as a fluorescent probe, the probe itself emitted low fluorescence (blue line) at 460 nm by UV irradiation at 280 nm; the protein (streptavidin) emitted fluorescence (green line) at 340 nm by UV irradiation at 280. […] Further, it was confirmed that the fluorescence increasing rate at the above emission wavelength was 600% or more, indicating production of effective iFRET signals. […]

BSA = BSA (Bos taurus, UniProt P02769); assay: Target specificity of probe XXVIII against BSA; type: binding; conditions: probe exposed to BSA
Excerpt: (§4) In order to examine target specificity of the probe having Chemical Formula XXVIII, the probe was exposed to BSA to examine whether iFRET signals were produced by binding of the probe to BSA. […] Therefore, it was confirmed that the biotin-conjugated iFRET fluorescent probe of the present invention selectively binds to streptavidin to produce iFRET signals.

streptavidin [4] = target: T1, streptavidin (Streptomyces avidinii, UniProt P22629); assay: iFRET detection of streptavidin with biotin-conjugated probes; type: binding; conditions: UV irradiation at 280 nm
Excerpt: The results of detecting streptavidin using Compounds of Chemical Formulae XXV to XXVIII as probes for iFRET are shown in FIGS. 23 to 26.
as §3
As in FIG. 24 showing the result of using the compound of Chemical Formula XXVI as a fluorescent probe, the probe itself emitted low fluorescence (blue line) at 460 nm by UV irradiation at 280 nm; the protein (streptavidin) emitted fluorescence (green line) at 340 nm by UV irradiation at 280. […] Further, it was confirmed that the fluorescence increasing rate at the above emission wavelength was 600% or more, indicating production of effective iFRET signals.
Because the compound of Chemical Formula XXVII emitted fluorescence at the longer wavelength than the known iFRET probe, signal-to-noise ratio is […] during real-time cell imaging, thereby providing more clear images.
as §4

streptavidin [5] = target: T1, streptavidin; assay: FRET efficiency and Forster distance of biotin-conjugated probes; type: binding; conditions: between iFRET probe and streptavidin
Experimental: (§5) The quantum yield of each compound was measured in 0.1 M pH 10.0 phosphate buffer. 4-methyl-umbelliferone (ΦF 0.63) was used as a standard material, tryptophan (ΦF=0.12) was used as an FRET donor to calculate the quantum yield. FRET efficiency was calculated based on the results measured in PBS buffer at pH 7.4, and fluorescence was measured using an LS55 fluorescence spectrometer manufactured by Perkin Elmer.

[6] = Quantum yield measurement; type: physicochemical; conditions: 0.1 M pH 10.0 phosphate buffer, standard 4-methyl-umbelliferone
Experimental: as §5

T1 sequence (P22629 25-183): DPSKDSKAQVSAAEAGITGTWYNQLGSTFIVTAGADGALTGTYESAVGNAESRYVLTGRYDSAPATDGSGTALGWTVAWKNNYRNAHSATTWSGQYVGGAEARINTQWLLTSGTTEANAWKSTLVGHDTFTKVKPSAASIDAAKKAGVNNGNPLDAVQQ
Sequence of BSA (P02769 25-607): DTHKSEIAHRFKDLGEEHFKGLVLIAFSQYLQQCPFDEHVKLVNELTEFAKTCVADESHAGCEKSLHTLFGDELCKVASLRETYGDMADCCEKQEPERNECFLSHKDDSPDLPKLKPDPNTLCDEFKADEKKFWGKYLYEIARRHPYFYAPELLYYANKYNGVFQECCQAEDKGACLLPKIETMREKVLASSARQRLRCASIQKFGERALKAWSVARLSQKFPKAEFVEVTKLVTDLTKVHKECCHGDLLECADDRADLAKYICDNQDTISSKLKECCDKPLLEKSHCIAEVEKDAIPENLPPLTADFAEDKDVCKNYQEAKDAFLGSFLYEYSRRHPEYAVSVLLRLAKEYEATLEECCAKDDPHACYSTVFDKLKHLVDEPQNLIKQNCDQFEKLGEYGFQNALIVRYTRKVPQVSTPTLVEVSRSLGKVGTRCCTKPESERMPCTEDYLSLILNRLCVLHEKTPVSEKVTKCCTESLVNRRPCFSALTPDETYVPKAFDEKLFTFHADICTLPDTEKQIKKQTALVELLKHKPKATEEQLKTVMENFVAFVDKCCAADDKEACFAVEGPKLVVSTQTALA
Sequence of BSA (bovine serum albumin) (P02769 25-607): as above

| Structure (SMILES) | iFRET signal around 450 nm ([1]; 2 μM probe with purified HSP90, DMSO diluted with distilled water) | fluorescence at 430 nm of mixture ([1]; mixture of probe and HSP90, excitation at 280 nm, versus HSP90 or probe alone) | iFRET signals [2] | Kd (HSP90 protein) [nM] | fluorescence emission wavelength of probe alone ([3]; excitation / UV irradiation at 280 nm) | fluorescence intensity on excitation at 340 nm compared to excitation at 280 nm ([3]; probe alone) | iFRET signals (BSA) | fluorescence / iFRET signal of mixture of probe and streptavidin (streptavidin [4]) | R0 (Fōrster distance) (streptavidin [5]) [nm] | Quantum yield (ΦF) [6] |
| --- | --- | --- | --- | --- | --- | --- | --- | --- | --- | --- |
| Nc1ncnc2c1nc(Sc1cc3c(cc1Br)OCO3)n2CCC(=O)NCCNc1cccc2ccccc12 [Chemical Formula XXIV, 3-(6-amino-8-(6-bromobenzo[1,3]-dioxole-5-ylthio)-9S-purin-9-yl)-N-(2-(naphthalene-1-ylamino)ethyl)propaneamide] | new fluorescence signals were observed | increased fluorescence | no iFRET signals | ~160 | approximately 430 nm | approximately 2 fold |  |  |  |  |
| CN(C)c1ccc2cc(/C=C/C(=O)NCCNC(=O)CCCC[C@@H]3SC[C@@H]4NC(=O)N[C@@H]43)c(=O)oc2c1 [Chemical Formula XXVIII, N-((E)-7-dimethylaminocoumarin-3-acryl)-N′-(biotinyl)ethylenediamide] |  |  |  |  |  |  | no signals were observed | iFRET signals produced | 2.102 | 0.55 |
